Drawing on PubChem BioAssay AID250 (DTP/NCI, 2004), this text covers T/C for eight compounds.

Where “and” joins values, the source holds several entries; their conditions need not be identical. Equal values may be shown once. Toxic doses and inconclusive results are not listed.

For this assay, the system named is BDF1 mice, L1210 leukemia sc, survival T/C. The assay can be described thus: NCI In Vivo Anticancer Drug Screen. Data for tumor model L1210 Leukemia (subcutaneous) in B6D2F1 (BDF1) mice. The note with it: higher = longer survival. In outline: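 Expressed as T/C: measurement in compound-treated, tumor-bearing mice relative to vehicle-treated control mice, based on survival or tumor size.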

Where [1] appears, read: endpoint: median survival time, dose: 3.0 mg/kg/injection, schedule: Q01DX Z (sc), vehicle: saline.
Setting [2] is: endpoint: median survival time, dose: 5.0 mg/kg/injection, schedule: Q01DX Z (sc), vehicle: saline.

For the compound `Nc1n[nH]c(N)n1`, the T/C runs as follows: (endpoint: median survival time, dose: 125.0 mg/kg/injection, schedule: Q03HX024 (sc), vehicle: none) 110 % of control; (endpoint: median survival time, dose: 180.0 mg/kg/injection, schedule: Q03HX024 (ip), vehicle: water) 116 % of control; (endpoint: median survival time, dose: 180.0 mg/kg/injection, schedule: Q03HX024 (sc), vehicle: water) 122 % of control; (endpoint: median survival time, dose: 250.0 mg/kg/injection, schedule: Q03HX024 (sc), vehicle: none) 120 % of control; (endpoint: median survival time, dose: 250.0 mg/kg/injection, schedule: Q#A X018 (sc), vehicle: none) 120 % of control; (endpoint: median survival time, dose: 432.0 mg/kg/injection, schedule: Q01DX Z (sc), vehicle: water) 104 % of control. Besides, the T/C (endpoint: median survival time, dose: 500.0 mg/kg/injection, schedule: Q03HX024 (ip), vehicle: water) was 177 % of control; the T/C (endpoint: median survival time, dose: 500.0 mg/kg/injection, schedule: Q03HX024 (sc), vehicle: water) is 166 % of control; the T/C (endpoint: median survival time, dose: 500.0 mg/kg/injection, schedule: Q04DX003 (sc), vehicle: none) is 110 % of control; the T/C (endpoint: median survival time, dose: 500.0 mg/kg/injection, schedule: Q#A X018 (sc), vehicle: none) is 160 % of control; the T/C (endpoint: median survival time, dose: 720.0 mg/kg/injection, schedule: Q01DX Z (sc), vehicle: water) was 109 % of control; the T/C (endpoint: median survival time, dose: 1000.0 mg/kg/injection, schedule: Q03HX024 (sc), vehicle: none) is 110 % of control. Moreover, the T/C (endpoint: median survival time, dose: 1000.0 mg/kg/injection, schedule: Q04DX003 (sc), vehicle: none) is 110 % of control; the T/C (endpoint: median survival time, dose: 1000.0 mg/kg/injection, schedule: Q08DX009 (sc), vehicle: none) is 150 % of control; the T/C (endpoint: median survival time, dose: 1000.0 mg/kg/injection, schedule: Q#A X018 (sc), vehicle: none) was 100 % of control; the T/C (endpoint: median survival time, dose: 2000.0 mg/kg/injection, schedule: Q01DX Z (sc), vehicle: water) is 150 % of control; the T/C (endpoint: median survival time, dose: 2000.0 mg/kg/injection, schedule: Q04DX003 (sc), vehicle: none) is 115 % of control; the T/C (endpoint: median survival time, dose: 2000.0 mg/kg/injection, schedule: Q#A X018 (sc), vehicle: none) is 90 % of control. The T/C by setting is: (endpoint: median survival time, dose: 4000.0 mg/kg/injection, schedule: Q04DX003 (sc), vehicle: none) 120 % of control; (endpoint: median survival time, dose: 4000.0 mg/kg/injection, schedule: Q08DX009 (sc), vehicle: none) 150 % of control.
On to `COC(=O)[C@@H]1c2cc3c(c(O)c2[C@@H](OC2OC(C)C(OC)C(C)(OC)C2OC)C[C@]1(C)O)C(=O)c1c(O)cc2c(c1C3=O)O[C@H]1O[C@]2(C)[C@H](O)[C@@H](N(C)C)[C@@H]1O` (stereo partly drawn), for which the T/C reads like this: under setting [1], 105 % of control; under setting [2], 100 % of control; (endpoint: median survival time, dose: 8.4 mg/kg/injection, schedule: Q01DX Z (sc), vehicle: saline) 100 % of control; (endpoint: median survival time, dose: 14.0 mg/kg/injection, schedule: Q01DX Z (sc), vehicle: saline) 90 % of control; (endpoint: median survival time, dose: 23.0 mg/kg/injection, schedule: Q01DX Z (sc), vehicle: saline) 90 % of control.
For `C[n+]1ccc(Nc2ccc(NC(=O)c3ccc(Nc4cc[n+](C)c5ccc(N)cc45)cc3)cc2)cc1`, the T/C by setting is: (endpoint: median survival time, dose: 0.5 mg/kg/injection, schedule: Q01DX009 (ip), vehicle: Klucel (hydroxypropylcellulose) (HPC)) 100 % of control; (endpoint: median survival time, dose: 1.0 mg/kg/injection, schedule: Q01DX009 (ip), vehicle: Klucel (hydroxypropylcellulose) (HPC)) 110 % of control; (endpoint: median survival time, dose: 2.0 mg/kg/injection, schedule: Q01DX009 (ip), vehicle: Klucel (hydroxypropylcellulose) (HPC)) 182 % of control; (endpoint: median survival time, dose: 4.0 mg/kg/injection, schedule: Q01DX009 (ip), vehicle: Klucel (hydroxypropylcellulose) (HPC)) 250 % of control; (endpoint: median survival time, dose: 8.0 mg/kg/injection, schedule: Q01DX009 (ip), vehicle: Klucel (hydroxypropylcellulose) (HPC)) 291 % of control.
With `C1CN1c1nc(N2CC2)nc(N2CC2)n1`, the T/C was 100 % of control (endpoint: median survival time, dose: 0.23 mg/kg/injection, schedule: Q01DX Z (sc), vehicle: saline); 104 % of control and 105 % of control (endpoint: median survival time, dose: 0.39 mg/kg/injection, schedule: Q01DX Z (sc), vehicle: saline); 112 % of control and 115 % of control (endpoint: median survival time, dose: 0.65 mg/kg/injection, schedule: Q01DX Z (sc), vehicle: saline); 160 % of control (endpoint: median survival time, dose: 1.08 mg/kg/injection, schedule: Q01DX Z (sc), vehicle: saline); 108 % of control under setting [1]; 104 % of control and 120 % of control under setting [2].
Consider `CCC(=O)OCC1OC(n2cnc3c(=S)nc(N)[nH]c32)C(OC(=O)CC)C1OC(=O)CC` (stereo not drawn), for which the T/C (endpoint: median survival time, dose: 5.0 mg/kg/injection, schedule: Q01DX Z (sc), vehicle: carboxymethylcellulose (CMC)) is 100 % of control; the T/C (endpoint: median survival time, dose: 14.0 mg/kg/injection, schedule: Q01DX Z (sc), vehicle: carboxymethylcellulose (CMC)) was 109 % of control; the T/C (endpoint: median survival time, dose: 23.0 mg/kg/injection, schedule: Q01DX Z (sc), vehicle: carboxymethylcellulose (CMC)) was 100 % of control.
For the compound `CC(C)NNC(=O)c1ccncc1`, the T/C (endpoint: median survival time, dose: 200.0 mg/kg/injection, schedule: Q01DX001 (sc), vehicle: saline) was 105 % of control and 106 % of control; the T/C (endpoint: median survival time, dose: 400.0 mg/kg/injection, schedule: Q01DX001 (sc), vehicle: saline) was 100 % of control and 103 % of control.
For `CC[n+]1ccc(Nc2ccc(NC(=O)c3ccc(Nc4cc[n+](CC)c5ccc(N)cc45)cc3)cc2)cc1`, the T/C was 100 % of control (endpoint: median survival time, dose: 0.5 mg/kg/injection, schedule: Q01DX009 (sc), vehicle: water); 122 % of control (endpoint: median survival time, dose: 0.5 mg/kg/injection, schedule: Q03HX024 (ip), vehicle: water); 172 % of control (endpoint: median survival time, dose: 1.0 mg/kg/injection, schedule: Q01DX009 (ip), vehicle: water); 105 % of control (endpoint: median survival time, dose: 1.0 mg/kg/injection, schedule: Q01DX009 (sc), vehicle: water); 177 % of control (endpoint: median survival time, dose: 1.0 mg/kg/injection, schedule: Q03HX024 (ip), vehicle: water); 115 % of control (endpoint: median survival time, dose: 1.0 mg/kg/injection, schedule: Q03HX024 (sc), vehicle: water). Also, the T/C by setting is: (endpoint: median survival time, dose: 2.0 mg/kg/injection, schedule: Q01DX009 (ip), vehicle: water) 172 % of control; (endpoint: median survival time, dose: 2.0 mg/kg/injection, schedule: Q03HX008 (sc), vehicle: water) 120 % of control; (endpoint: median survival time, dose: 2.0 mg/kg/injection, schedule: Q03HX024 (ip), vehicle: water) 200 % of control; (endpoint: median survival time, dose: 2.0 mg/kg/injection, schedule: Q03HX024 (sc), vehicle: water) 160 % of control; (endpoint: median survival time, dose: 2.0 mg/kg/injection, schedule: Q04DX003 (sc), vehicle: water) 100 % of control; (endpoint: median survival time, dose: 4.0 mg/kg/injection, schedule: Q01DX001 (sc), vehicle: water) 110 % of control. The T/C is 122 % of control (endpoint: median survival time, dose: 4.0 mg/kg/injection, schedule: Q01DX009 (ip), vehicle: water); 210 % of control (endpoint: median survival time, dose: 4.0 mg/kg/injection, schedule: Q01DX009 (sc), vehicle: water); 190 % of control (endpoint: median survival time, dose: 4.0 mg/kg/injection, schedule: Q03HX024 (sc), vehicle: water); 115 % of control (endpoint: median survival time, dose: 4.0 mg/kg/injection, schedule: Q04DX003 (sc), vehicle: water); 110 % of control (endpoint: median survival time, dose: 8.0 mg/kg/injection, schedule: Q01DX001 (sc), vehicle: water); 111 % of control (endpoint: median survival time, dose: 8.0 mg/kg/injection, schedule: Q01DX009 (ip), vehicle: water). In addition, the T/C (endpoint: median survival time, dose: 8.0 mg/kg/injection, schedule: Q01DX009 (sc), vehicle: water) is 170 % of control; the T/C (endpoint: median survival time, dose: 8.0 mg/kg/injection, schedule: Q03HX008 (sc), vehicle: water) was 185 % of control; the T/C (endpoint: median survival time, dose: 8.0 mg/kg/injection, schedule: Q03HX024 (ip), vehicle: water) was 111 % of control; the T/C (endpoint: median survival time, dose: 16.0 mg/kg/injection, schedule: Q04DX003 (sc), vehicle: water) was 165 % of control.
As to `Nc1nc(N)c2nc(CN(CCO)c3ccc(C(=O)NC(CCC(=O)O)C(=O)O)cc3)cnc2n1` (stereo not drawn), the T/C is 160 % of control (endpoint: mean survival time, dose: 2.0 mg/kg/injection, schedule: Q01DX009 (ip), vehicle: sodium bicarbonate); 160 % of control (endpoint: mean survival time, dose: 4.0 mg/kg/injection, schedule: Q01DX009 (ip), vehicle: sodium bicarbonate); 191 % of control (endpoint: mean survival time, dose: 8.0 mg/kg/injection, schedule: Q01DX009 (ip), vehicle: sodium bicarbonate); 123 % of control (endpoint: mean survival time, dose: 8.0 mg/kg/injection, schedule: Q04DX003 (ip), vehicle: sodium bicarbonate); 154 % of control (endpoint: mean survival time, dose: 16.0 mg/kg/injection, schedule: Q01DX009 (ip), vehicle: sodium bicarbonate).
